What was measured:
[1] = log P determination via capillary electrophorese (cePro9600); type: physicochemical; conditions: pH = 10.0
Procedure: log P determinations were performed via capillary electrophorese on a cePro9600™ from CombiSep.

[2] = system: vetch aphid (Megoura viciae); assay: Vetch aphid (Megoura viciae) broad bean leaf disk microtiter test; type: in vivo; conditions: 1415 ppm; broad bean leaf disks; 5 days
Procedure: B.2 Vetch Aphid (Megoura viciae)
For evaluating control of vetch aphid (Megoura viciae) through contact or systemic means the test unit consists of 24-well-microtiter plates containing broad bean leaf disks.
The compounds are formulated using a solution containing 75% v/v water and 25% v/v DMSO. Different concentrations of formulated compounds are sprayed onto the leaf disks at 2.5 μl, using a custom built micro atomizer, at two replications.
After application, the leaf disks are air-dried and 5-8 adult aphids placed on the leaf disks inside the microtiter plate wells. The aphids are then allowed to suck on the treated leaf disks and incubated at about […] and about 50±5% relative humidity for 5 days. Aphid mortality and fecundity is then visually assessed.

[3] = system: Tobacco Budworm (Heliothis virescens); assay: Tobacco budworm (Heliothis virescens) I, foliar spray on cotton plants; type: in vivo; conditions: 800 ppm, 4 days after treatment
Procedure: B.3 Tobacco Budworm (Heliothis virescens) I
The active compounds are formulated in cyclohexanone as a 10,000 ppm solution supplied in tubes. The tubes are inserted into an automated electrostatic sprayer equipped with an atomizing nozzle and they serve as stock solutions for which lower dilutions are made in 50% acetone:50% water (v/v). A nonionic surfactant (Kinetic®) is included in the solution at a volume of 0.01% (v/v).
Cotton plants are grown 2 plants to a pot and selected for treatment at the cotyledon stage. Test solutions are sprayed onto the foliage by an automated electrostatic plant sprayer equipped with an atomizing spray nozzle. The plants are dried in the sprayer fume hood and then removed from the sprayer. Each pot is placed into perforated plastic bags with a zip closure. About 10 to 11 budworm larvae are placed into the bag and the bags zipped closed. Test plants are maintained in a growth room at about 250C and about 20-40% relative humidity for 4 days, avoiding direct exposure to fluorescent light (24 hour photoperiod) to prevent trapping of heat inside the bags. Mortality and reduced feeding are assessed 4 days after treatment, compared to untreated control plants.

logP [1] | SMILES | further results
logP: 3.2 [pH = 10.0] | CCCS(C)=NC(=O)c1cc(I)cc(C)c1NC(=O)c1cc(Br)nn1-c1ncccc1Cl (racemic) [compound 272] | 
 | CCS(CC1CC1)=NC(=O)c1cc(Cl)cc(C)c1N (centres unmarked) [S.9] | mortality in comparison with untreated controls [2]: over 75%
 | CCCS(CCC)=NC(=O)c1cc(Cl)cc(Cl)c1N [S.22] | mortality in comparison with untreated controls [3]: over 75%
logP: 3.2 [pH = 10.0] | CCCS(C)=NC(=O)c1cc(Cl)cc(C)c1NC(=O)c1cc(C(F)(F)F)nn1-c1ncccc1Cl (centres unmarked) [compound 11] | 
logP: 3.3 [pH = 10.0]. | Cc1cc(Cl)cc(C(=O)N=S(C(C)C)C(C)C)c1NC(=O)c1cc(C(F)(F)F)nn1-c1ncccc1Cl [compound 24] | 
logP: 3.2 [pH = 10.0]; | Cc1cc(I)cc(C(=O)N=S(C)C)c1NC(=O)c1cc(C(F)(F)F)nn1-c1ncccc1Cl [compound 31] | 
logP: 3.3 [pH = 10.0]; | CCS(C)=NC(=O)c1cc(I)cc(C)c1NC(=O)c1cc(C(F)(F)F)nn1-c1ncccc1Cl (centres unmarked) [compound 33] | 
logP: 3.6 [pH = 10.0]; | CCCCCS(CCO)=NC(=O)c1cc(Cl)cc(C)c1NC(=O)c1cc(C(F)(F)F)nn1-c1ncccc1Cl (centres unmarked) [compound 48] | 
logP: 3.6 [pH = 10.0]; | Cc1cc(I)cc(C(=O)N=S2CCCCC2)c1NC(=O)c1cc(C(F)(F)F)nn1-c1ncccc1Cl [compound 71] | 
logP: 3.6 [pH = 10.0]; | CCCS(C)=NC(=O)c1cc(I)cc(C)c1NC(=O)c1cc(C(F)(F)F)nn1-c1ncccc1Cl (centres unmarked) [compound 93] | 
logP: 2.9 [pH = 10.0]; | Cc1cc(Cl)cc(C(=O)N=S(C)C)c1NC(=O)c1cc(C(F)(F)F)nn1-c1ncccc1Cl [compound 110] | 
logP: 3.9 [pH = 10.0]; | CCCCCS(CCO)=NC(=O)c1cc(I)cc(C)c1NC(=O)c1cc(C(F)(F)F)nn1-c1ncccc1Cl (centres unmarked) [compound 113] | 
logP: 3.4 [pH = 10.0]; | Cc1cc(I)cc(C(=O)N=S(C(C)C)C(C)C)c1NC(=O)c1cc(C(F)(F)F)nn1-c1ncccc1Cl [compound 120] | 
logP: 3.5 [pH = 10.0]; | Cc1cc(I)cc(C(=O)N=S2CCSC2)c1NC(=O)c1cc(C(F)(F)F)nn1-c1ncccc1Cl (centres unmarked) [compound 129] | 
logP: 3.1 [pH = 10.0]; | Cc1cc(I)cc(C(=O)N=S2CCCC2)c1NC(=O)c1cc(C(F)(F)F)nn1-c1ncccc1Cl [compound 137] | 
logP: 2.9 [pH = 10.0]; | CCS(C)=NC(=O)c1cc(Cl)cc(C)c1NC(=O)c1cc(C(F)(F)F)nn1-c1ncccc1Cl (centres unmarked) [compound 152] | 
logP: 3.5 [pH = 10.0] | C#CCOc1cc(C(=O)Nc2c(C)cc(I)cc2C(=O)N=S(CCO)CCCCC)n(-c2ncccc2Cl)n1 (centres unmarked) [compound 195] | 
logP: 3.1 [pH = 10.0] | C#CCOc1cc(C(=O)Nc2c(C)cc(I)cc2C(=O)N=S(C(C)C)C(C)C)n(-c2ncccc2Cl)n1 [compound 196] | 
logP: 2.7 [pH = 10.0] | C#CCOc1cc(C(=O)Nc2c(C)cc(Cl)cc2C(=O)N=S(C(C)C)C(C)C)n(-c2ncccc2Cl)n1 [compound 197] | 
logP: 2.2 [pH = 10.0]; | Cc1cccc(C(=O)N=S(C)C)c1NC(=O)c1cc(C(F)(F)F)nn1-c1ncccc1Cl [compound 199] | 
logP: 2.5 [pH = 10.0] | C#CCOc1cc(C(=O)Nc2c(C)cc(Cl)cc2C(=O)N=S2CCSC2)n(-c2ncccc2Cl)n1 (centres unmarked) [compound 200] | 
logP: 2.9 [pH = 10.0] | C#CCOc1cc(C(=O)Nc2c(C)cc(Cl)cc2C(=O)N=S(C)c2ccc(F)cc2)n(-c2ncccc2Cl)n1 (centres unmarked) [compound 201] | 
logP: 3.4 [pH = 10.0] | C#CCOc1cc(C(=O)Nc2c(C)cc(I)cc2C(=O)N=S(C)c2ccc(F)cc2)n(-c2ncccc2Cl)n1 (centres unmarked) [compound 204] | 
logP: 2.8 [pH = 10.0] | C#CCOc1cc(C(=O)Nc2c(C)cc(Cl)cc2C(=O)N=S2CCCCC2)n(-c2ncccc2Cl)n1 [compound 209] | 
logP: 2.5 [pH = 10.0]; | CCS(C)=NC(=O)c1cccc(C)c1NC(=O)c1cc(C(F)(F)F)nn1-c1ncccc1Cl (centres unmarked) [compound 210] | 

logP [1] | SMILES | further results
logP: 2.8 [pH = 10.0]; | CCCS(C)=NC(=O)c1cccc(C)c1NC(=O)c1cc(C(F)(F)F)nn1-c1ncccc1Cl (centres unmarked) [compound 211] | 
logP: 3.4 [pH = 10.0]; | CCCCCS(CCO)=NC(=O)c1cccc(C)c1NC(=O)c1cc(C(F)(F)F)nn1-c1ncccc1Cl (centres unmarked) [compound 213] | 
logP: 2.7 [pH = 10.0]; | Cc1cccc(C(=O)N=S(C(C)C)C(C)C)c1NC(=O)c1cc(C(F)(F)F)nn1-c1ncccc1Cl [compound 214] | 
logP: 3.2 [pH = 10.0]; | Cc1cccc(C(=O)N=S(C)c2ccc(F)cc2)c1NC(=O)c1cc(C(F)(F)F)nn1-c1ncccc1Cl (centres unmarked) [compound 215] | 
logP: 3.3 [pH = 10.0] | C#CCOc1cc(C(=O)Nc2c(C)cc(Cl)cc2C(=O)N=S(CCO)CCCCC)n(-c2ncccc2Cl)n1 (centres unmarked) [compound 216] | 
logP: 3.3 [pH = 10.0]; | Cc1cc(I)cc(C(=O)N=S2CCSC2)c1NC(=O)c1cc(Br)nn1-c1ncccc1Cl (centres unmarked) [compound 221] | 
logP: 2.1 [pH = 10.0] | Cc1cccc(C(=O)N=S2CCCC2)c1NC(=O)c1cc(Br)nn1-c1ncccc1Cl [compound 222] | 
logP: 3.1 [pH = 10.0]; | CCS(C)=NC(=O)c1cc(I)cc(C)c1NC(=O)c1cc(Br)nn1-c1ncccc1Cl (centres unmarked) [compound 223] | 
logP: 2.7 [pH = 10.0]; | CCS(C)=NC(=O)c1cc(Cl)cc(C)c1NC(=O)c1cc(Br)nn1-c1ncccc1Cl (centres unmarked) [compound 224] | 
logP: 3.2 [pH = 10.0]; | Cc1cc(Cl)cc(C(=O)N=S(C)c2ccc(F)cc2)c1NC(=O)c1cc(Br)nn1-c1ncccc1Cl (centres unmarked) [compound 235] | 
logP: 2.3 [pH = 10.0]; | Cc1cccc(C(=O)N=S(C(C)C)C(C)C)c1NC(=O)c1cc(Br)nn1-c1ncccc1Cl [compound 236] | 
logP: 2.7 [pH = 10.0]; | Cc1cccc(C(=O)N=S(C)c2ccc(F)cc2)c1NC(=O)c1cc(Br)nn1-c1ncccc1Cl (centres unmarked) [compound 237] | 
logP: 3.5 [pH = 10.0]; | Cc1cc(I)cc(C(=O)N=S(C)c2ccc(F)cc2)c1NC(=O)c1cc(Br)nn1-c1ncccc1Cl (centres unmarked) [compound 238] | 
logP: 2.9 [pH = 10.0]; | CCCS(C)=NC(=O)c1cc(Cl)cc(C)c1NC(=O)c1cc(Br)nn1-c1ncccc1Cl (centres unmarked) [compound 242] | 
logP: 2.9 [pH = 10.0] | Cc1cc(Cl)cc(C(=O)N=S(C(C)C)C(C)C)c1NC(=O)c1cc(Br)nn1-c1ncccc1Cl [compound 243] | 
logP: 2.9 [pH = 10.0]; | Cc1cc(I)cc(C(=O)N=S2CCCC2)c1NC(=O)c1cc(Br)nn1-c1ncccc1Cl [compound 246] | 
logP: 2.9 [pH = 10.0] | CCCCCS(CCO)=NC(=O)c1cccc(C)c1NC(=O)c1cc(Br)nn1-c1ncccc1Cl (centres unmarked) [compound 250] | 
logP: 3.7 [pH = 10.0] | CCCCCS(CCO)=NC(=O)c1cc(I)cc(C)c1NC(=O)c1cc(Br)nn1-c1ncccc1Cl (centres unmarked) [compound 252] | 
logP: 3.3 [pH = 10.0]; | Cc1cc(I)cc(C(=O)N=S(C(C)C)C(C)C)c1NC(=O)c1cc(Br)nn1-c1ncccc1Cl [compound 257] | 
logP: 3.4 [pH = 10.0]; | CCCCCS(CCO)=NC(=O)c1cc(Cl)cc(C)c1NC(=O)c1cc(Br)nn1-c1ncccc1Cl (centres unmarked) [compound 258] | 
logP: 2.1 [pH = 10.0]; | C=CS(CC)=NC(=O)c1cccc(C)c1NC(=O)c1cc(Br)nn1-c1ncccc1Cl (centres unmarked) [compound 261] | 
logP: 2.3 [pH = 10.0]; | CCCS(C)=NC(=O)c1cccc(C)c1NC(=O)c1cc(Br)nn1-c1ncccc1Cl (centres unmarked) [compound 263] | 
logP: 3.4 [pH = 10.0]; | Cc1cc(I)cc(C(=O)N=S2CCCCC2)c1NC(=O)c1cc(Br)nn1-c1ncccc1Cl [compound 267] | 
logP: 3.2 [pH = 10.0]; | CCS(CCCl)=NC(=O)c1cc(I)cc(C)c1NC(=O)c1cc(Br)nn1-c1ncccc1Cl (centres unmarked) [compound 268] | 
logP: 1.9 [pH = 10.0]; | Cc1cccc(C(=O)N=S(C)C)c1NC(=O)c1cc(Br)nn1-c1ncccc1Cl [compound 274] | 
